Consider 47 molecules from patent publication US8642808B2, “Bis-aryl sulfonamides” (ChemoCentryx, Inc., priority 2002, dated 2014).

SMILES strings stand for the structures. pIC50: −log10 of the molar value.

In the first series the test system is MDR1α-knockout mice. Kind of series: in vivo efficacy study in MDR1α-knockout mice (spontaneous colitis, delay of disease onset). Conditions: female MDR1α-knockout mice, 50 mg/kg twice a day intraperitoneal, 14 consecutive days. The text has this:
The MDR1α-knockout mice, which lack the P-glycoprotein gene, spontaneously develop colitis under specific pathogen-free condition. The pathology in these animals has been characterized as Th1-type T cell-mediated inflammation similar to ulcerative colitis in humans. Disease normally begins to develop at around 8-10 weeks after birth. But the ages at which disease emerges and the ultimate penetrance level often vary considerably among different animal facilities.
In a study using the MDR1α-knockout mice, the known compound shown below was tested for its ability to delay disease onset during a short treatment regimen.
This compound is structurally similar to the claimed modulators (I) of the present invention. Female mice (n=15) were dosed with 50 mg/kg twice a day by intraperitonial injection, starting at age 13 weeks for 14 consecutive days. The study was terminated when the mice reached age 17 weeks at which point the disease penetrance level measured by diarrhea incidence reached 55%. […] This protection extended one to two weeks after treatment stopped (FIG. 1).
On to `COc1ccc(S(=O)(=O)Nc2ccc(Cl)cc2C(=O)c2ccccc2)cc1` [drawing 79], for which the “duration of protection after treatment stopped” value is on record as “one to two”.

Still in this series, the particulars now being: female MDR1α-knockout mice, 50 mg/kg twice a day intraperitoneal, 14 consecutive days from age 13 weeks.
Consider `COc1ccc(S(=O)(=O)Nc2ccc(Cl)cc2C(=O)c2ccccc2)cc1` [drawing 79], for which the tolerability result was “well tolerated”.

The same series, now with this note: female MDR1α-knockout mice, 50 mg/kg twice a day intraperitoneal, 14 consecutive days from age 13 weeks; compared with vehicle.
As to `COc1ccc(S(=O)(=O)Nc2ccc(Cl)cc2C(=O)c2ccccc2)cc1` [drawing 79], the “onset of IBD symptoms (diarrhea incidence)” value was “significant delay in the onset of IBD symptoms”.

The next series concerns the target T1, CCR9 (Homo sapiens, UniProt P51686).
T1 construct: CCR9-expressing cells (such as a T cell line MOLT-4 cells); host or cells: MOLT-4
T1 sequence (P51686 1-369): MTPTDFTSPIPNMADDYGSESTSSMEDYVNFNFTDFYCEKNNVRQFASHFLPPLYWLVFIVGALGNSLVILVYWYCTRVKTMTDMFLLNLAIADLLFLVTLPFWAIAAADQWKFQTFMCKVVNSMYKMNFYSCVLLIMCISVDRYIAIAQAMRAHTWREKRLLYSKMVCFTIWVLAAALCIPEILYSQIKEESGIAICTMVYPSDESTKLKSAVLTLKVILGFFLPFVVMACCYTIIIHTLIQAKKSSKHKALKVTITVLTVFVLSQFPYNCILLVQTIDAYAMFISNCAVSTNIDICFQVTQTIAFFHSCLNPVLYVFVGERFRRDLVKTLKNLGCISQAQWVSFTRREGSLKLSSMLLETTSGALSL
Kind of series: chemotaxis (conventional migration) assay and/or calcium mobilization (calcium flux) assay, TECK-stimulated MOLT-4 cells. In kind it is cell-based. Conditions: TECK-induced migration and/or calcium signal, read-out: activity (IC50) in either or both of the chemotaxis assay and calcium mobilization assays. As to the method:
MOLT-4 cells were obtained from the American Type Culture Collection (Manassas, Va.) and cultured in RPMI tissue culture medium supplemented with 10% fetal calf serum (FCS) in a humidified 5% CO2 incubator at 37° C. Recombinant human chemokine protein TECK was obtained from R&D Systems (Minneapolis, Minn.). ChemoTX® chemotaxis microchambers were purchased from Neuro Probe (Gaithersburg, Md.). CyQUANT® cell proliferation kits were purchased from Molecular Probes (Eugene, Oreg.). Calcium indicator dye Fluo-4 AM was purchased from Molecular Devices (Mountain View, Calif.).
Conventional migration assay was used to determine the efficacy of potential receptor antagonists in blocking migration mediated through CCR9. This assay was routinely performed using the ChemoTX® microchamber system with a 5-μm pore-sized polycarbonate membrane. To begin such an assay, MOLT-4 cells were harvested by centrifugation of cell suspension at 1000 PRM on a GS-6R Beckman centrifuge. The cell pellet was resuspended in chemotaxis buffer (HBSS with 0.1% BSA) at 5×10^6 cells/mL. Test compounds at desired concentrations were prepared from 10 mM stock solutions by serial dilutions in chemotaxis buffer. An equal volume of cells and compounds were mixed and incubated at room temperature for 15 minutes. Afterwards, 20 μL of the mixture was transferred onto the porous membrane of a migration microchamber, with 29 μL of 50 nM chemokine TECK protein placed at the lower chamber. Following a 150-minute incubation at 37° C., during which cells migrated against the chemokine gradient, the assay was terminated by removing the cell drops from atop the filter. To quantify cells migrated across the membrane, 5 μL of 7X CyQUANT® solution was added to each well in the lower chamber, and the fluorescence signal measured on a Spectrafluor Plus fluorescence plate reader (TECAN, Durham, N.C.). The degree of inhibition was determined by comparing migration signals between compound-treated and untreated cells. IC50 calculation was further performed by non-linear squares regression analysis using Graphpad Prism (Graphpad Software, San Diego, Calif.).
Calcium flux assay measures an increase in intracellular calcium following ligand-induced receptor activation. In the screen of CCR9 antagonists, it was used as a secondary assay carried out on a FLIPR® machine (Molecular Devices, Mountain View, Calif.). To begin an assay, MOLT-4 cells were harvested by centrifugation of cell suspension, and resuspended to 1.5×10^6 cells/mL in HBSS (with 1% fetal calf serum). Cells were then labeled with a calcium indicator dye Fluo-4 AM for 45 minutes at 37° C. with gentle shaking. Following incubation, cells were pelletted, washed once with HBSS and resuspended in the same buffer at a density of 1.6×10^6 cells/mL. One hundred microliters of labeled cells were mixed with […] of test compound at the appropriate concentrations on an assay plate. Chemokine protein TECK was added at a final concentration of 25 nM to activate the receptor. The degree of inhibition was determined by comparing calcium signals between compound-treated and untreated cells. IC50 calculations were further performed by non-linear squares regression analysis using Graphpad Prism (Graphpad Software, San Diego, Calif.).
In the table below, structures and activity are provided for representative compounds described herein. Activity is provided as follows for either or both of the chemotaxis assay and/or calcium mobilization assays, described above: + 1000 nM<IC50<10000 nM; ++, 100 nM<IC50<1000 nM; and +++, IC50<100 nM.
For orientation: Calcium assays in cells follow changes in intracellular calcium, usually with a dye or a luminescent sensor.
Regarding `CC(C)(C)c1ccc(S(=O)(=O)Nc2ccc(Cl)cc2C(=O)c2ccccc2)cc1`, the negative logarithm of the IC50 (pIC50) was more than 7.00. `COc1ccc(S(=O)(=O)Nc2ccc(Br)cc2C(=O)c2ccccc2)cc1`: the negative logarithm of the IC50 (pIC50) is more than 7.00.

In the case of `CC(C)(C)c1ccc(S(=O)(=O)Nc2cc(Cl)ccc2C(=O)c2ccccc2)cc1`, the pIC50 was more than 7.00. `COc1ccc(S(=O)(=O)Nc2ccc(F)cc2C(=O)c2ccccc2)cc1`: the negative logarithm of the IC50 (pIC50) is more than 7.00.

Take `CS(=O)(=O)c1ccc(S(=O)(=O)Nc2ccc(Cl)cc2C(=O)c2ccccc2)cc1`: the negative logarithm of the IC50 (pIC50) was more than 7.00. For `O=C(c1ccccc1)c1cc(Cl)ccc1NS(=O)(=O)c1ccc(-c2cnco2)cc1`, the pIC50 was more than 7.00. Turning to `C=Cc1ccc(S(=O)(=O)Nc2ccc(Cl)cc2C(=O)c2ccccc2)cc1`, the negative logarithm of the IC50 (pIC50) was more than 7.00.

Regarding `O=C(c1ccccc1)c1cc(Cl)ccc1NS(=O)(=O)c1ccc(I)cc1`, the pIC50 is more than 7.00.

As for `CCc1ccc(S(=O)(=O)Nc2ccc(Br)cc2C(=O)c2ccccc2)cc1`, the pIC50 is more than 7.00. In the case of `O=C(c1ccccc1)c1cc(Cl)ccc1NS(=O)(=O)c1ccc(C(F)(F)F)cc1`, the negative-log IC50 (pIC50) is more than 7.00. Regarding `O=C(c1ccccc1)c1cc(Br)ccc1NS(=O)(=O)c1ccc(-c2cocn2)cc1`, the negative-log IC50 (pIC50) is more than 7.00. Same read-out and setting: under `CCc1ccc(S(=O)(=O)Nc2ccc(Cl)cc2C(=O)c2ccccc2)cc1` stands more than 7.00; under `CC(C)Oc1ccc(S(=O)(=O)Nc2ccc(Cl)cc2C(=O)c2ccccc2)cc1`, more than 7.00; under `CC(=O)c1ccc(S(=O)(=O)Nc2ccc(Br)cc2C(=O)c2ccccc2)cc1`, more than 7.00.

Consider `O=C(c1ccccc1)c1cc(Cl)ccc1NS(=O)(=O)c1ccc(OC(F)(F)F)cc1`, for which the pIC50 is more than 7.00. As to `COC(=O)CCc1ccc(S(=O)(=O)Nc2ccc(Cl)cc2C(=O)c2ccccc2)cc1`, the pIC50 was more than 7.00. Still for that read-out and setting: then `CC(C)(C)c1ccc(S(=O)(=O)Nc2ccc(Br)cc2C(=O)c2ccccc2)cc1`, with more than 7.00; and `CC(=O)c1ccc(S(=O)(=O)Nc2ccc(Cl)cc2C(=O)c2ccccc2)cc1`, with more than 7.00; and `CCC(C)(C)c1ccc(S(=O)(=O)Nc2ccc(Cl)cc2C(=O)c2ccccc2)cc1`, with more than 7.00. Consider `CCCCc1ccc(S(=O)(=O)Nc2ccc(Cl)cc2C(=O)c2ccccc2)cc1`, for which the pIC50 is 6.00 to 7.00.

In the case of `O=C(c1ccccc1)c1cc(Cl)ccc1NS(=O)(=O)c1ccc(-c2cccs2)cc1`, the negative logarithm of the IC50 (pIC50) was 6.00 to 7.00. Consider `O=C(c1ccccc1)c1cc(Cl)ccc1NS(=O)(=O)c1ccc(Nc2cccnc2)cc1`, for which the pIC50 was 6.00 to 7.00.

As to `CC(C)(C)c1ccc(S(=O)(=O)Nc2ccc(Cl)cc2C(=O)c2ccc(F)cc2)cc1`, the negative logarithm of the IC50 (pIC50) was 6.00 to 7.00. The same measure, in the same setting: then `O=C(c1ccccc1)c1cc(Cl)ccc1NS(=O)(=O)c1cccc(F)c1`, with 6.00 to 7.00. With `O=C(c1ccccc1)c1cc(Cl)ccc1NS(=O)(=O)c1ccc(Br)cc1`, the negative-log IC50 (pIC50) is 6.00 to 7.00.

As for `N#Cc1cccc(S(=O)(=O)Nc2ccc(Cl)cc2C(=O)c2ccccc2)c1`, the pIC50 is 6.00 to 7.00. Still for that read-out and setting: then `CC(C)c1ccc(S(=O)(=O)Nc2ccc(Cl)cc2C(=O)c2ccccc2)cc1`, with 6.00 to 7.00; and `O=C(c1ccccc1)c1cc(Cl)ccc1NS(=O)(=O)c1ccc(C#Cc2ccccc2)cc1`, with 6.00 to 7.00; and `O=C(c1ccccc1)c1cc(Cl)ccc1NS(=O)(=O)c1ccc2c(c1)CCO2`, with 6.00 to 7.00. Turning to `CC(=O)Nc1ccc(S(=O)(=O)Nc2ccc(Cl)cc2C(=O)c2ccccc2)cc1`, the pIC50 is 6.00 to 7.00. The same measure, in the same setting: then `COc1ccc(S(=O)(=O)Nc2cc(Br)ccc2C(=O)c2ccccc2)cc1`, with 6.00 to 7.00; and `O=C(c1ccccc1)c1cc(Cl)ccc1NS(=O)(=O)c1ccc(F)cc1`, with 6.00 to 7.00; and `CC(=O)Nc1ccc(S(=O)(=O)Nc2ccc(Cl)cc2C(=O)c2ccccc2)cc1Cl`, with 6.00 to 7.00. Turning to `O=C(c1ccccc1)c1cc(Cl)ccc1NS(=O)(=O)c1ccc(-n2cccn2)cc1`, the negative-log IC50 (pIC50) is 6.00 to 7.00. Take `N#Cc1ccc(S(=O)(=O)Nc2ccc(Cl)cc2C(=O)c2ccccc2)cc1`: the pIC50 is 6.00 to 7.00. `CCCCOc1ccc(S(=O)(=O)Nc2ccc(Cl)cc2C(=O)c2ccccc2)cc1`: the pIC50 was 5.00 to 6.00. For `O=C(c1ccccc1)c1cc(Cl)ccc1NS(=O)(=O)c1ccccc1F`, the pIC50 was 5.00 to 6.00. For the molecule `O=C(c1ccccc1)c1cc(Cl)ccc1NS(=O)(=O)c1ccc(Cl)cc1Cl`, the pIC50 was 5.00 to 6.00. Regarding `COc1ccc(-c2ccc(S(=O)(=O)Nc3ccc(Cl)cc3C(=O)c3ccccc3)cc2)cc1`, the pIC50 was 5.00 to 6.00. Consider `O=C(c1ccccc1)c1cc(Cl)ccc1NS(=O)(=O)c1ccc(Cl)c(Cl)c1`, for which the negative logarithm of the IC50 (pIC50) is 5.00 to 6.00.

As to `COc1ccc(S(=O)(=O)Nc2ccc(Cl)cc2C(=O)c2ccccc2F)cc1`, the pIC50 is 5.00 to 6.00. With `COc1ccc(S(=O)(=O)Nc2ccc(OC)cc2C(=O)c2ccccc2)cc1`, the pIC50 was 5.00 to 6.00. Still for that read-out and setting: under `COc1cccc(S(=O)(=O)Nc2ccc(Cl)cc2C(=O)c2ccccc2)c1` stands 5.00 to 6.00; under `COc1ccc(OC)c(S(=O)(=O)Nc2ccc(Cl)cc2C(=O)c2ccccc2)c1`, 5.00 to 6.00. With `O=C(c1ccccc1)c1cc(Cl)ccc1NS(=O)(=O)c1cccc(C(F)(F)F)c1`, the negative-log IC50 (pIC50) was 5.00 to 6.00. Same read-out and setting: then `COc1ccc(S(=O)(=O)Nc2ccc(Cl)cc2C(=O)c2ccccc2)cc1` [drawing 93], with more than 7.00.

Broadly, the pIC50 is −log10 of the IC50, conventionally taken in molar units.
